Test results taken from article PMC12613110, “Anti-Trypanosoma cruzi Effects of Sesquiterpenoids from Branches of Drimys brasiliensis (Winteraceae)” (ACS Omega, 2025).

Assays:
[1] = tested on: T. cruzi trypomastigotes (Y strain); experiment: Anti-T. cruzi activity against trypomastigote forms (resazurin reduction assay, 24 h); type: cell-based; conditions: Trypanosoma cruzi, ± SD
Experimental: (§1) The trypomastigote forms of T. cruzi (Y strain) were maintained in culture using Rhesus monkey kidney cells (LLC-MK2, ATCC CCL-7). These cells were cultured in RPMI-1640 medium supplemented with 2% fetal bovine serum (FBS) and incubated at 37 °C in a humidified atmosphere containing 5% CO2. Mouse fibroblast cells (NCTC clone L929, ATCC) and LLC-MK2 cells were similarly maintained in RPMI-1640 medium supplemented with 10% FBS under identical incubation conditions (37 °C, 5% CO2). Peritoneal macrophages were isolated from BALB/c mice by peritoneal lavage using RPMI-1640 medium supplemented with 10% FBS, followed by incubation at 37 °C in a 5% CO2 humidified atmosphere. In addition, the human monocytic cell line THP-1 (ATCC TIB-202) was cultured in RPMI-1640 medium supplemented with 20% FBS and […] glutamine, and maintained at 37 °C in a humidified 5% CO2 environment.
Compounds 1–6 were initially dissolved in DMSO and subsequently diluted in RPMI-1640 medium to the desired concentrations before being dispensed into 96-well microplates. T. cruzi trypomastigotes were then added at a density of 1 × 10^6 parasites per well. The plates were incubated for 24 h at 37 °C in a humidified atmosphere containing 5% CO2. Following incubation, the 50% effective concentration (EC50) was determined using the resazurin reduction assay. Absorbance readings were acquired at 570 nm using a microplate spectrophotometer (FilterMax F5). Untreated parasites served as the negative control, while benznidazole, a standard reference drug, was used as the positive control.
(§2) The CC50 and EC50 values were obtained from sigmoid dose–response curves using Graph-Pad Prims 6.0 software. All samples were tested in triplicate.

[2] = tested on: intracellular amastigote forms of T. cruzi; experiment: Activity against intracellular amastigote forms of T. cruzi in infected peritoneal macrophages (48 h); type: cell-based; conditions: Trypanosoma cruzi, Peritoneal macrophage, intracellular amastigotes in peritoneal macrophages, ± SD, NA: nonactive
Experimental: as §1
The antiparasitic activity of compounds 1–6 against the intracellular amastigote forms of T. cruzi was assessed using an in vitro infection model with peritoneal macrophages. Macrophages were seeded in 16-well plates at a density of 1 × 10^5 cells per well and incubated at 37 °C in a humidified atmosphere containing 5% CO2 for 24 h to promote adherence. Cells were then infected with trypomastigotes for 2 h under the same conditions to allow parasite internalization. Following infection, noninternalized parasites were removed by washing with RPMI-1640 medium. The infected macrophages were subsequently treated with serial dilutions of compounds 1–6 (150.0–1.6 μM) and incubated for an additional 48 h at 37 °C in 5% CO2 to evaluate their antitrypanosomal efficacy. ,
as §2

[3] = Mammalian cytotoxicity, MTT assay (48 h); type: cell-based; conditions: mouse
Experimental: as §1
The cytotoxicity of compounds 1–6 was assessed using NCTC (clone L929) cell line. NCTC cells (6 × 10^4 cells/well) were seeded into 96-well plates and treated with serial dilutions of the test compounds prepared in RPMI-1640 medium supplemented with 10% fetal bovine serum (FBS). Following a 48-h incubation at 37 °C in a humidified atmosphere with 5% CO2, cell viability was determined using the MTT colorimetric assay. The 50% cytotoxic concentration (CC50) was calculated based on absorbance measurements at 570 nm using a FilterMax F5 microplate reader (Molecular Devices).
as §2

Leishmania infantum = tested on: Leishmania infantum; design: method as in previous study by our group; conditions: after a short incubation period; ref previous study by our group; cited from earlier work
[4] = NCTC clone L929 fibroblast cells

| Compound | EC50 [1] | EC50 [2] | CC50 at 48 h [3, 4] | CC50 at 48 h ([3]; NCTC clone L929 cells) | ultrastructural damage to Leishmania (Leishmania infantum) |
| --- | --- | --- | --- | --- | --- |
| CC(C)=CCC[C@@H](C)C1=C[C@H](O)[C@@](C)(O)CC1 (relative stereo) [Compound 2, rel-(2S,3S,7R)-bisabola-1(6),10-diene-2,3-diol] | 88.3 ± 6.5 µM | 24.2 ± 4.4 µM | > 200 µM |  |  |
| CC(C)=CCC[C@@H](C)[C@]12C=C[C@](C)(CC1)OO2 (relative stereo) [Compound 3, rel-(3S,6R,7R)-3,6-epidioxy-1,10-bisaboladiene] | 65.5 ± 5.4 µM |  | > 200 µM |  |  |
| CC(C)=CCC[C@@H](C)c1ccc(C)cc1 [Compound 4, α-curcumene] | 20.5 ± 1.6 µM | 4.9 ± 0.1 µM | > 200 µM |  |  |
| CC(C)=CCC[C@@H](C)C1=CC(=O)[C@@](C)(O)CC1 (relative stereo) [Compound 1, rel-(3S,7R)-3-hydroxy-bisabola-1(6),10-dien-2-one] | 38.5 ± 2.7 µM | 6.7 ± 3.8 µM | > 200 µM |  |  |
| C=C1[C@@H](C)CC[C@]2(C)[C@@H](C=O)C(C=O)=CC[C@@H]12 [Compound 6, 9-deoxymuzigadial] | 5.9 ± 0.9 µM | 3.1 ± 0.1 µM |  | > 200 µM |  |
| CC1(C)CCC[C@]2(C)[C@@H](C=O)C(C=O)=CC[C@@H]12 [Compound 5, polygodial] | 3.8 ± 3.1 µM | 3.5 ± 0.2 µM | > 200 µM |  | intense mitochondrial swelling |
| O=C(Cn1ccnc1[N+](=O)[O-])NCc1ccccc1 [benznidazole, reference compound] | 17.4 ± 1.8 µM | 5.5 ± 2.2 µM | > 200 µM |  |  |
